In patent US4220755A, “Fortimicin B derivatives and process for production thereof” (Abbott Laboratories, priority 1976, dated 1980):
≈ marks a conversion by molar mass, not a printed value. Like-named read-outs stand apart in the source and are kept apart here.

Columns and labels:
[1] = tested on: Escherichia coli R18 KY8321; test: MIC, agar dilution method, pH 7.2; format: cell-based; conditions: R18KY8321, E. coli R18 KY8321, 2**: gentamicin, producing adenylsynthetase and neomycin phosphotransferase type II, read-out: Minimum inhibition concentration (MIC)
Description: (§1) Measurement was carried out according to the agar dilution method, using a medium of pH 8.0, or the Japanese Antibiotic Medicament Standard, using a medium of pH 7.2 Units are in mcg/ml.
2: gentamicin, producing adenylsynthetase and neomycin phosphotransferase

[2] = tested on: Staphylococcus aureus KY4279 ATCC6538P; test: MIC, agar dilution method, pH 8.0; format: cell-based; conditions: pH 8.0, Staphylococcus aureus KY4279, read-out: Minimum inhibition concentration (MIC), SA
Description: as §1
S.A.: Staphylococcus aureus KY4279 ATCC6538P

[3] = tested on: Pseudomonas aeruginosa R9 KY8516; test: MIC, agar dilution method, pH 7.2; format: cell-based; conditions: R9KY8516, pH 7.2, P. aeruginosa R9 KY8516, 3**: kanamycin, producing acetyltransferase, read-out: Minimum inhibition concentration (MIC)
Description: as §1
(§2) 3: kanamycin, producing acetyltransferase.

Serratia marcescens 1065 = test: MIC, agar dilution method, pH 7.2; format: cell-based
Description: as §1, §2

[4] = tested on: Escherichia coli R17 Z343; test: MIC, agar dilution method, pH 7.2; format: cell-based
Description: as §1, §2

[5] = tested on: Klebsiella pneumoniae KY4275 ATCC10031; test: MIC, agar dilution method, pH 8.0; format: cell-based; conditions: ATCC10031; pH 8.0; Klebsiella pneumoniae KY4275; read-out: Minimum inhibition concentration (MIC), KP
Description: as §1
K.P.: Klebsiella pneumoniae KY4275 ATCC10031.

[6] = tested on: Eschericia coli KY4271 ATCC26; test: MIC, agar dilution method, pH 8.0; format: cell-based; conditions: Escherichia coli, ATCC26; pH 8.0; E. coli KY4271; read-out: Minimum inhibition concentration (MIC), EC
Description: as §1
E.C.: Eschericia coli KY4271 ATCC26

Bacillus subtilis KY4273 = test: MIC, agar dilution method, pH 8.0; format: cell-based; conditions: pH 8.0; Bacillus subtilis KY4273; read-out: Minimum inhibition concentration (MIC), BS
Description: as §1
B.S.: Bacillus subtilis KY4273

[7] = tested on: Escherichia coli R20 KY8349; test: MIC, agar dilution method, pH 7.2; format: cell-based
Description: as §1
5: neomycin, producing phosphotransferase type I.

Escherichia coli 76-2 = test: MIC, agar dilution method, pH 7.2; format: cell-based
Description: as §1
(§3) **1: gentamicin, producing adenylsynthetase.

[8] = tested on: Klebsiella pneumoniae 3020 Y-60; test: MIC, agar dilution method, pH 7.2; format: cell-based; conditions: 3020Y60; pH 7.2; Klebsiella pneumoniae 3020 Y-60; 1**: gentamicin, producing adenylsynthetase; read-out: Minimum inhibition concentration (MIC)
Description: as §1, §3

[9] = tested on: Escherichia coli R12 Z-338; test: MIC, agar dilution method, pH 7.2; format: cell-based; conditions: R12Z338, pH 7.2, E. coli R12 Z-338, 1**: gentamicin, producing adenylsynthetase, read-out: Minimum inhibition concentration (MIC)
Description: as §1, §3

[10] = tested on: Escherichia coli 57R/W677; test: MIC, agar dilution method, pH 7.2; format: cell-based; conditions: 57R/W677, pH 7.2, read-out: Minimum inhibition concentration (MIC)
Description: as §1, §3

Eschericihia coli 3100 = test: MIC, agar dilution method, pH 7.2; format: cell-based, Escherichia coli; conditions: Escherichia coli; pH 7.2; E. coli 3100; read-out: Minimum inhibition concentration (MIC)
Description: as §1

[11] = tested on: Pseudomonas aeruginosa R5 KY8512; test: MIC, agar dilution method, pH 7.2; format: cell-based
Description: as §1
6: neomycin, producing phosphotransferase type I and type II.

[12] = tested on: Salmonella typhosa KY4278 ATCC9992; test: MIC, agar dilution method, pH 8.0; format: cell-based; conditions: Salmonella enterica, pH 8, read-out: Minimum inhibition concentration (MIC), ST
Description: as §1
S.T.: Salmonella typhosa KY4278 ATCC9992

[13] = tested on: Escherichia coli R19 KY8348; test: MIC, agar dilution method, pH 7.2; format: cell-based; conditions: R19KY8348, pH 7.2, E. coli R19 KY8348, 4**: gentamicin, producing acetyltransferase type I, read-out: Minimum inhibition concentration (MIC)
Description: as §1
(§4) 4: gentamicin, producing acetyltransferase type I.

[14] = tested on: Pseudomonas aeruginosa R4 KY8511; test: MIC, agar dilution method, pH 7.2; format: cell-based; conditions: R4KY8511, pH 7.2, P. aeruginosa R4 KY8511, 4**: gentamicin, producing acetyltransferase type I, read-out: Minimum inhibition concentration (MIC)
Description: as §1, §4

[15] = tested on: Salmonella enteritidis G-14; test: MIC, agar dilution method, pH 7.2; format: cell-based; conditions: Salmonella enterica
Description: as §1

Escherichia coli NIHTC-2 = test: MIC, agar dilution method, pH 7.2; format: cell-based
Description: as §1

[16] = tested on: Klebsiella pneumoniae KY4274; test: MIC, agar dilution method, pH 7.2; format: cell-based
Description: as §1

[17] = tested on: Pseudomonas aeruginosa BMH# 1; test: MIC, agar dilution method, pH 7.2; format: cell-based
Description: as §1

Shigella sonnei ATCC9290 = test: MIC, agar dilution method, pH 7.2; format: cell-based; conditions: read-out: Minimum inhibition concentration (MIC)
Description: as §1

Proteus vulgaris JJ = test: MIC, agar dilution method, pH 7.2; format: cell-based
Description: as §1

[18] = tested on: Eschericihia coli GN2411-5; test: MIC, agar dilution method, pH 7.2; format: cell-based; conditions: Escherichia coli
Description: as §1

[19] = tested on: Staphylococcus aureus Smith (A); test: MIC, agar dilution method, pH 7.2; format: cell-based; conditions: pH 7.2; Staphylococcus aureus Smith (A); read-out: Minimum inhibition concentration (MIC)
Description: as §1

[20] = tested on: Staphylococcus aureus 209-P; test: MIC, agar dilution method, pH 7.2; format: cell-based; conditions: pH 7.2; Staphylococcus aureus 209-P; read-out: Minimum inhibition concentration (MIC)
Description: as §1

[21] = tested on: Pseudomonas aeruginosa UCLA 4184; test: MIC, agar dilution method, pH 7.2; format: cell-based; conditions: UCLA4184; pH 7.2; Pseudomonas aeruginosa UCLA 4184; read-out: Minimum inhibition concentration (MIC)
Description: as §1

SMILES	MIC [1]	MIC [2]	MIC [3]	MIC [5]	MIC [6]	MIC (Bacillus subtilis KY4273)	MIC [8]	MIC [9]	MIC [10]	MIC (Eschericihia coli 3100)	MIC [12]	MIC [13]	MIC [14]	MIC (Shigella sonnei ATCC9290)	MIC [19]	MIC [20]	MIC [21]	other results
CO[C@H]1[C@@H](O)[C@H](N)[C@@H](O[C@H]2O[C@H]([C@H](C)N)CC[C@H]2N)[C@H](O)[C@@H]1N(C)C(=O)CNC(N)=O [Compound 3, 4-N-hydantoylfortimicin B, reference compound]	6.25 µg/mL (≈ 13.9 µM)	0.16 µg/mL (≈ 0.357 µM)	> 100 µg/mL	0.63 µg/mL (≈ 1.4 µM)	0.08 µg/mL (≈ 0.178 µM)	0.32 µg/mL (≈ 0.713 µM)	100 µg/mL (≈ 223 µM)	6.25 µg/mL (≈ 13.9 µM)	25 µg/mL (≈ 55.7 µM)	12.5 µg/mL (≈ 27.9 µM)	0.32 µg/mL (≈ 0.713 µM)	> 100 µg/mL	> 100 µg/mL	25 µg/mL (≈ 55.7 µM)	6.25 µg/mL (≈ 13.9 µM)	3.12 µg/mL (≈ 6.96 µM)	50 µg/mL (≈ 111 µM)	MIC (Serratia marcescens 1065; pH 7.2, Serratia marcescens 1065, 3**: kanamycin, producing acetyltransferase, read-out: Minimum inhibition concentration (MIC)): 50 µg/mL (≈ 111 µM); MIC ([4]; R17Z343, pH 7.2, E. coli R17 Z343, 3**: kanamycin, producing acetyltransferase, read-out: Minimum inhibition concentration (MIC)): 3.12 µg/mL (≈ 6.96 µM); MIC ([7]; R20KY8349, pH 7.2, E. coli R20 KY8349, 5**: neomycin, producing phosphotransferase type I, read-out: Minimum inhibition concentration (MIC)): 12.5 µg/mL (≈ 27.9 µM); MIC (Escherichia coli 76-2; Escherichia coli, 762, pH 7.2, E. coli 76-2, 1**: gentamicin, producing adenylsynthetase, read-out: Minimum inhibition concentration (MIC)): 12.5 µg/mL (≈ 27.9 µM); MIC ([11]; R5KY8512, pH 7.2, P. aeruginosa R5 KY8512, 6**: neomycin, producing phosphotransferase type I and type II, read-out: Minimum inhibition concentration (MIC)): 50 µg/mL (≈ 111 µM); MIC ([15]; pH 7.2, Salmonella enteritidis G-14, read-out: Minimum inhibition concentration (MIC)): 25 µg/mL (≈ 55.7 µM); MIC (Escherichia coli NIHTC-2; NIHTC2, pH 7.2, Escherichia coli NIHTC-2, read-out: Minimum inhibition concentration (MIC)): 12.5 µg/mL (≈ 27.9 µM); MIC ([16]; pH 7.2, Klebsiella pneumoniae KY4274, read-out: Minimum inhibition concentration (MIC)): 12.5 µg/mL (≈ 27.9 µM); MIC ([17]; pH 7.2, Pseudomonas aeruginosa BMH# 1, read-out: Minimum inhibition concentration (MIC)): 100 µg/mL (≈ 223 µM); MIC (Proteus vulgaris JJ; pH 7.2, Proteus vulgaris JJ, read-out: Minimum inhibition concentration (MIC)): 12.5 µg/mL (≈ 27.9 µM); MIC ([18]; pH 7.2, E. coli GN2411-5, read-out: Minimum inhibition concentration (MIC)): 25 µg/mL (≈ 55.7 µM)
CO[C@H]1[C@@H](O)[C@H](N)[C@@H](O[C@H]2O[C@H]([C@H](C)N)CC[C@H]2N)[C@H](O)[C@@H]1N(C)C[C@@H](O)CCN [Compound 27, 4-N-[(S)-4-amino-2-hydroxybutyl]fortimicin B]	6.25 µg/mL (≈ 14.3 µM)	0.04 µg/mL (≈ 0.0918 µM)	25 µg/mL (≈ 57.4 µM)	0.32 µg/mL (≈ 0.735 µM)	0.16 µg/mL (≈ 0.367 µM)	0.04 µg/mL (≈ 0.0918 µM)	12.5 µg/mL (≈ 28.7 µM)	12.5 µg/mL (≈ 28.7 µM)	12.5 µg/mL (≈ 28.7 µM)	12.5 µg/mL (≈ 28.7 µM)	0.16 µg/mL (≈ 0.367 µM)	> 100 µg/mL	> 100 µg/mL	3.12 µg/mL (≈ 7.16 µM)	0.4 µg/mL (≈ 0.918 µM)	0.4 µg/mL (≈ 0.918 µM)	25 µg/mL (≈ 57.4 µM)	MIC (Serratia marcescens 1065; Serratia marcescens, 1065, pH 7.2, read-out: Minimum inhibition concentration (MIC)): 6.25 µg/mL (≈ 14.3 µM); MIC ([4]; R17Z343, pH 7.2, read-out: Minimum inhibition concentration (MIC)): 3.12 µg/mL (≈ 7.16 µM); MIC ([7]; R20KY8349, pH 7.2, read-out: Minimum inhibition concentration (MIC)): 1.25 µg/mL (≈ 2.87 µM); MIC (Escherichia coli 76-2; Escherichia coli, 762, pH 7.2, read-out: Minimum inhibition concentration (MIC)): 6.25 µg/mL (≈ 14.3 µM); MIC ([11]; R5KY8512, pH 7.2, read-out: Minimum inhibition concentration (MIC)): 6.25 µg/mL (≈ 14.3 µM); MIC ([15]; ENTERITIDIS, pH 7.2, read-out: Minimum inhibition concentration (MIC)): 3.12 µg/mL (≈ 7.16 µM); MIC (Escherichia coli NIHTC-2; Escherichia coli, NIHTC2, pH 7.2, read-out: Minimum inhibition concentration (MIC)): 3.12 µg/mL (≈ 7.16 µM); MIC ([16]; Klebsiella pneumoniae, KY4274, pH 7.2, read-out: Minimum inhibition concentration (MIC)): 3.12 µg/mL (≈ 7.16 µM); MIC ([17]; Pseudomonas aeruginosa, pH 7.2, read-out: Minimum inhibition concentration (MIC)): 6.25 µg/mL (≈ 14.3 µM); MIC (Proteus vulgaris JJ; Proteus vulgaris, pH 7.2, read-out: Minimum inhibition concentration (MIC)): 3.12 µg/mL (≈ 7.16 µM); MIC ([18]; GN2411, pH 7.2, read-out: Minimum inhibition concentration (MIC)): 6.25 µg/mL (≈ 14.3 µM)
